Assay results taken from paper PMC9974468 (Proceedings of the National Academy of Sciences of the …, 2023).

Legend:
Assay type in all cases: binding
[1] = target: FGFR2K (FGFR2 kinase domain) (Homo sapiens, UniProt P21802, C491A); assay: NMR titration, 1H/[…] HMQC chemical shift perturbation
[2] = target: FGFR2K V564I^0Y (FGFR2 kinase domain) (Homo sapiens, UniProt P21802, C491A/V564I/Y466F/Y586L/Y588P/Y656F/Y657F); assay: NMR titration, 1H/[…] methyl HMQC chemical shift perturbation
[3] = target: FGFR2K WT^0Y (FGFR2 kinase domain) (Homo sapiens, UniProt P21802, C491A/Y466F/Y586L/Y588P/Y656F/Y657F); assay: as above
Chain of FGFR2K WT^0Y (FGFR2 kinase domain) (P21802 458-768 Y466F/C491A/Y586L/Y588P/Y656F/Y657F): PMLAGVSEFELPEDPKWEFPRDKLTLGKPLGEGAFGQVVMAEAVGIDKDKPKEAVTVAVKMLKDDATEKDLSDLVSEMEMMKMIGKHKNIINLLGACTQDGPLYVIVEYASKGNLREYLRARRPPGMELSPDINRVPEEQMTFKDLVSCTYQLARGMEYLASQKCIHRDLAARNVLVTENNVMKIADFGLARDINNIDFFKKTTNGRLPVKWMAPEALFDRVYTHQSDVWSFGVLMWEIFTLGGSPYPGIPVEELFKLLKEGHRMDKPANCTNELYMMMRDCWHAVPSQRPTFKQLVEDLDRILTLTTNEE

[4] = target: FGFR2K V564E^0Y (FGFR2 kinase domain) (Homo sapiens, UniProt P21802, C491A/V564E/Y466F/Y586L/Y588P/Y656F/Y657F); assay: as above
Chain of FGFR2K V564E^0Y (FGFR2 kinase domain) (P21802 458-768 Y466F/C491A/V564E/Y586L/Y588P/Y656F/Y657F): as the sequence (P21802 458-768 Y466F/C491A/Y586L/Y588P/Y656F/Y657F) above, with V107E counted along it

Chain of FGFR2K V564I^0Y (FGFR2 kinase domain) (P21802 458-768 Y466F/C491A/V564I/Y586L/Y588P/Y656F/Y657F): as the sequence (P21802 458-768 Y466F/C491A/Y586L/Y588P/Y656F/Y657F) above, with V107I counted along it
Chain of FGFR2K (FGFR2 kinase domain) (P21802 458-768 C491A): as the sequence (P21802 458-768 Y466F/C491A/Y586L/Y588P/Y656F/Y657F) above, with F9Y, L129Y, P131Y, F199Y, F200Y counted along it

Row | Kd [2] [µM] | Kd [3] [µM] | Kd [4] [µM] | SMILES | Kd [1] [µM]
1 |  |  |  | Nc1ncnc2c1ncn2[C@@H]1O[C@H](COP(=O)(O)OP(=O)(O)CP(=O)(O)O)[C@@H](O)[C@H]1O [AMP-PCP] | 2900 ± 100
2 | 280 ± 30 | 450 ± 70 | 140 ± 20 | Nc1ncnc2c1ncn2[C@@H]1O[C@H](COP(=O)(O)OP(=O)(O)OP(=O)(O)O)[C@@H](O)[C@H]1O [ATP] | 
